Source: PubChem BioAssay AID328 (DTP/NCI, 2004)
Several values for one entry are separate records, joined by “and”; a condition that tells them apart may be missing. Equal entries are not always repeated. Inconclusive results and toxic doses are left out.

System: BDF1 mice, P388 leukemia ip, median survival T/C
Experiment: NCI In Vivo Anticancer Drug Screen. Data for tumor model P388 Leukemia (intraperitoneal) in B6D2F1 (BDF1) mice
Settings: endpoint: median survival time, higher = longer survival
Method in brief: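 Transplantable tumour in mice; compound vs vehicle dosing; survival scored; ratio of treated to control reported.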

[1] = dose: 25.0 mg/kg/injection, schedule: Q01DX009 (ip), vehicle: saline with Tween-80
[2] = dose: 50.0 mg/kg/injection, schedule: Q01DX009 (ip), vehicle: saline with Tween-80
[3] = dose: 100.0 mg/kg/injection, schedule: Q01DX009 (ip), vehicle: Klucel (hydroxypropylcellulose) (HPC)
[4] = dose: 200.0 mg/kg/injection, schedule: Q01DX009 (ip), vehicle: Klucel (hydroxypropylcellulose) (HPC)
[5] = dose: 25.0 mg/kg/injection, schedule: Q01DX009 (ip), vehicle: Klucel (hydroxypropylcellulose) (HPC)
[6] = dose: 50.0 mg/kg/injection, schedule: Q01DX009 (ip), vehicle: Klucel (hydroxypropylcellulose) (HPC)
[7] = dose: 12.5 mg/kg/injection, schedule: Q01DX009 (ip), vehicle: Klucel (hydroxypropylcellulose) (HPC)
[8] = dose: 100.0 mg/kg/injection, schedule: Q04DX003 (ip), vehicle: saline with Tween-80
[9] = dose: 200.0 mg/kg/injection, schedule: Q04DX003 (ip), vehicle: saline with Tween-80
[10] = dose: 200.0 mg/kg/injection, schedule: Q01DX009 (ip), vehicle: saline with Tween-80
[11] = dose: 100.0 mg/kg/injection, schedule: Q01DX009 (ip), vehicle: saline with Tween-80

SMILES: CN1CCN(Cc2nc3cccc4c3c([n+]2[O-])-c2ccccc2-4)CC1
- T/C (dose: 40.0 mg/kg/injection, schedule: Q06HX032 (ip), vehicle: saline with Tween-80): 100 % of control
- T/C (dose: 50.0 mg/kg/injection, schedule: Q03HX008 (ip), vehicle: saline with Tween-80): 107 % of control
- T/C (dose: 50.0 mg/kg/injection, schedule: Q03HX024 (ip), vehicle: saline with Tween-80): 109 % of control
- T/C (dose: 80.0 mg/kg/injection, schedule: Q01DX009 (ip), vehicle: saline with Tween-80): 118 % of control
- T/C (dose: 80.0 mg/kg/injection, schedule: Q03HX008 (ip), vehicle: saline with Tween-80): 120 % of control
- T/C (dose: 100.0 mg/kg/injection, schedule: Q01DX009 (ip), vehicle: saline): 158 % of control
- T/C (dose: 100.0 mg/kg/injection, schedule: Q01DX009 (oral), vehicle: saline with Tween-80): 107 % of control
- T/C (dose: 100.0 mg/kg/injection, schedule: Q01DX Z (ip), vehicle: saline): 159 % of control
- T/C (dose: 100.0 mg/kg/injection, schedule: Q03HX008 (oral), vehicle: saline with Tween-80): 105 % of control
- T/C (dose: 100.0 mg/kg/injection, schedule: Q03HX024 (ip), vehicle: saline with Tween-80): 162 % of control
- T/C (dose: 100.0 mg/kg/injection, schedule: Q08HX009 (oral), vehicle: saline with Tween-80): 100 % of control
- T/C (dose: 100.0 mg/kg/injection, schedule: Q08HX027 (oral), vehicle: saline with Tween-80): 120 % of control
- T/C (dose: 150.0 mg/kg/injection, schedule: Q01DX009 (ip), vehicle: saline): 150 % of control
- T/C (dose: 150.0 mg/kg/injection, schedule: Q01DX009 (oral), vehicle: saline with Tween-80): 112 % of control
- T/C (dose: 150.0 mg/kg/injection, schedule: Q04DX003 (oral), vehicle: saline with Tween-80): 99 % of control
- T/C (dose: 150.0 mg/kg/injection, schedule: Q08HX009 (oral), vehicle: saline with Tween-80): 112 % of control
- T/C (dose: 175.0 mg/kg/injection, schedule: Q08HX027 (oral), vehicle: saline with Tween-80): 161 % of control
- T/C (dose: 200.0 mg/kg/injection, schedule: Q01DX009 (oral), vehicle: saline with Tween-80): 110 % of control
- T/C (dose: 200.0 mg/kg/injection, schedule: Q03HX024 (oral), vehicle: saline with Tween-80): 152 % of control
- T/C (dose: 200.0 mg/kg/injection, schedule: Q04DX003 (oral), vehicle: saline with Tween-80): 110 % of control
- T/C (dose: 200.0 mg/kg/injection, schedule: Q08HX009 (oral), vehicle: saline with Tween-80): 103 % of control
- T/C (dose: 200.0 mg/kg/injection, schedule: Q08HX027 (oral), vehicle: saline with Tween-80): 90 % of control
- T/C (dose: 250.0 mg/kg/injection, schedule: Q01DX009 (oral), vehicle: saline with Tween-80): 117 % of control
- T/C (dose: 250.0 mg/kg/injection, schedule: Q04DX003 (oral), vehicle: saline with Tween-80): 100 % of control
- T/C (dose: 250.0 mg/kg/injection, schedule: Q08HX009 (oral), vehicle: saline with Tween-80): 116 % of control
- T/C (dose: 300.0 mg/kg/injection, schedule: Q04DX003 (oral), vehicle: saline with Tween-80): 105 % of control

SMILES: COc1ccc(NC(=S)N(CCC#N)C2CCCCC2)cc1
- T/C (dose: 6.25 mg/kg/injection, schedule: Q01DX009 (ip), vehicle: saline with Tween-80): 86 % of control
- T/C (dose: 12.5 mg/kg/injection, schedule: Q01DX009 (ip), vehicle: saline with Tween-80): 100 % of control
- T/C [1]: 104 % of control
- T/C [2]: 95 % of control

SMILES: COC(=O)C(NC(C)=O)C(=O)OC
- T/C [3]: 104 % of control
- T/C [4]: 92 % of control
- T/C (dose: 400.0 mg/kg/injection, schedule: Q01DX009 (ip), vehicle: Klucel (hydroxypropylcellulose) (HPC)): 88 % of control

SMILES: CCCCC(CC)COC(=O)/C=C/C(=O)OCC(CC)CCCC (stereo not given)
- T/C [3]: 86 % of control
- T/C [4]: 86 % of control

SMILES: [Cl][Pt+2]([Cl])([Cl])[Cl].c1ccc(C2CC[N-]CC2)cc1.c1ccc(C2CC[N-]CC2)cc1
- T/C [5]: 121 % of control
- T/C (dose: 25.0 mg/kg/injection, schedule: Q01DX009 (ip), vehicle: water): 103 % of control and 122 % of control
- T/C [6]: 112 % of control
- T/C (dose: 50.0 mg/kg/injection, schedule: Q01DX009 (ip), vehicle: water): 112 % of control
- T/C (dose: 50.0 mg/kg/injection, schedule: Q04DX003 (ip), vehicle: water): 109 % of control
- T/C [3]: 121 % of control
- T/C (dose: 100.0 mg/kg/injection, schedule: Q01DX009 (ip), vehicle: water): 90 % of control
- T/C (dose: 100.0 mg/kg/injection, schedule: Q04DX003 (ip), vehicle: water): 105 % of control
- T/C (dose: 200.0 mg/kg/injection, schedule: Q04DX003 (ip), vehicle: water): 98 % of control
- T/C (dose: 400.0 mg/kg/injection, schedule: Q04DX003 (ip), vehicle: water): 89 % of control

SMILES: CC1=COC2CCCCC2O1 (stereo not given) (tested in a mixture with another compound)
- T/C (dose: 100.0 mg/kg/injection, schedule: Q01DX009 (ip), vehicle: acetone): 104 % of control
- T/C (dose: 200.0 mg/kg/injection, schedule: Q01DX009 (ip), vehicle: acetone): 96 % of control
- T/C (dose: 400.0 mg/kg/injection, schedule: Q01DX009 (ip), vehicle: acetone): 96 % of control

SMILES: CCN(CC)CCCC(C)NC(=O)c1ccc2c(c1)C(=O)c1ccccc1C2=O (stereo not given)
- T/C (dose: 50.0 mg/kg/injection, schedule: Q01DX005 (ip), vehicle: saline): 98 % of control
- T/C (dose: 100.0 mg/kg/injection, schedule: Q01DX005 (ip), vehicle: saline): 89 % of control

SMILES: CNC(=S)N/N=C/C(C)=N/NC(=S)NC
- T/C (dose: 1.6 mg/kg/injection, schedule: Q01DX009 (ip), vehicle: Klucel (hydroxypropylcellulose) (HPC)): 113 % of control
- T/C (dose: 3.12 mg/kg/injection, schedule: Q01DX009 (ip), vehicle: Klucel (hydroxypropylcellulose) (HPC)): 104 % of control
- T/C [7]: 104 % of control
- T/C [6]: 100 % of control
- T/C [4]: 100 % of control
- T/C (dose: 125.0 micrograms/kg/injection, schedule: Q01DX009 (ip), vehicle: saline): 109 % of control
- T/C (dose: 250.0 micrograms/kg/injection, schedule: Q01DX009 (ip), vehicle: saline): 109 % of control
- T/C (dose: 500.0 micrograms/kg/injection, schedule: Q01DX009 (ip), vehicle: saline): 109 % of control
- T/C (dose: 1000.0 micrograms/kg/injection, schedule: Q01DX009 (ip), vehicle: saline): 109 % of control

SMILES: O=NN(CCF)C(=O)NC1CCC(NC(=O)N(CCF)N=O)CC1 (stereo not given)
- T/C (dose: 16.5 mg/kg/injection, schedule: Q04DX003 (ip), vehicle: saline with Tween-80): 186 % of control
- T/C (dose: 33.0 mg/kg/injection, schedule: Q04DX003 (ip), vehicle: saline with Tween-80): 272 % of control
- T/C (dose: 66.0 mg/kg/injection, schedule: Q04DX003 (ip), vehicle: saline with Tween-80): 272 % of control
- T/C [8]: 272 % of control
- T/C (dose: 132.0 mg/kg/injection, schedule: Q04DX003 (ip), vehicle: alcohol): 272 % of control
- T/C [9]: 200 % of control

SMILES: O=C1c2cc(Cl)ccc2-c2c(Cl)cc(Cl)cc21
- T/C [8]: 91 % of control
- T/C [10]: 87 % of control
- T/C [9]: 100 % of control
- T/C (dose: 400.0 mg/kg/injection, schedule: Q04DX003 (ip), vehicle: saline with Tween-80): 91 % of control

SMILES: CC1(O)c2ccccc2-c2nc3ccccc3nc21 (stereo not given)
- T/C [11]: 104 % of control
- T/C [10]: 100 % of control
- T/C (dose: 400.0 mg/kg/injection, schedule: Q01DX009 (ip), vehicle: saline with Tween-80): 118 % of control

SMILES: C/C=C/C[n+]1cccc2ccccc21
- T/C (dose: 6.25 mg/kg/injection, schedule: Q01DX009 (ip), vehicle: Klucel (hydroxypropylcellulose) (HPC)): 86 % of control
- T/C (dose: 6.25 mg/kg/injection, schedule: Q04DX003 (ip), vehicle: saline): 104 % of control
- T/C [7]: 90 % of control
- T/C (dose: 12.5 mg/kg/injection, schedule: Q04DX003 (ip), vehicle: saline): 104 % of control
- T/C [5]: 86 % of control
- T/C (dose: 25.0 mg/kg/injection, schedule: Q04DX003 (ip), vehicle: saline): 109 % of control

SMILES: CN(C)P(=O)(Oc1ccccc1)N(C)C
- T/C [1]: 94 % of control
- T/C [2]: 120 % of control
- T/C [11]: 102 % of control and 103 % of control
- T/C [10]: 100 % of control

SMILES: CC(=O)C1CCCC23CC(CC12)C(C)(C)C3OC=O (stereo not given)
- T/C (dose: 100.0 mg/kg/injection, schedule: Q04DX003 (ip), vehicle: Klucel (hydroxypropylcellulose) (HPC)): 90 % of control
- T/C (dose: 200.0 mg/kg/injection, schedule: Q04DX003 (ip), vehicle: Klucel (hydroxypropylcellulose) (HPC)): 100 % of control
- T/C (dose: 400.0 mg/kg/injection, schedule: Q04DX003 (ip), vehicle: Klucel (hydroxypropylcellulose) (HPC)): 109 % of control
